Experiments:
TRPV1 receptor [1] = target: T1, TRPV1 receptor (Rattus norvegicus, UniProt O35433); assay: TRPV1 receptor modulation in the rat vas deferens, EFS-induced contraction (Assay 1); details: electrical field stimulation, read-out: Inhibition of EFS response relative to capsaicin
Protocol: Wistar derived male rats (275±25 g) were suppressed by CO2 overexposure. The vas deferens was removed, placed in Krebs solution, pH 7.4 (composition in g/l: NaCl 6.89, KCl 0.35, CaCl2 0.277, KH2PO4 0.163, MgSO4.7H2O 0.296, NaHCO3 2.1 glucose 1.8) and excess fat and connective tissue removed. The portion of the vas deferens closest to the prostate was cut in half and each half was placed under 1 g tension in a 10 ml bath containing Krebs solution at 32° C. The tissue was contracted by electrical field stimulation (EFS; 60% of maximum stimulation, 0.015 Hz, 0.5 ms in duration) and contractile responses were measured.

TRPV1 receptor [2] = target: T1, TRPV1 receptor; assay: TRPV1 modulation in DRG neurones: CGRP release in absence and presence of capsaicin (Assay 2); assay type: cell-based; set-up: The culture used for this experiment contained sensory neurones, Schwann cells and fibroblasts; endogenous in cells; host or cells: primary rat DRG sensory neurone culture (with Schwann cells and fibroblasts); details: 20 min; for inhibition at 3 µM: 3 μM with capsaicin 1 μM; for inhibition at 3 µM / inhibition at 30 µM: −ve: inhibition, +ve: potentiation of capsaicin response, read-out: Effect of test compounds on capsaicin (1 μM)-induced CGRP release (%); for inhibition at 30 µM: 30 μM with capsaicin 1 μM; for Emax at 3 µM: test compound alone 3 μM; for Emax at 3 µM / Emax at 30 µM: rat DRG sensory neurones, read-out: CGRP release (% of capsaicin (1 μM) response); for Emax at 30 µM: test compound alone 30 μM
[3] = tested on: ovalbumin-sensitised guinea pigs; assay: Ovalbumin-sensitised guinea pigs, a model of asthma in vivo (Assay 7); set-up: species or system guinea pig; details: oral gavage 30 mg/kg/day for 7 days
Protocol: Dunkin-Hartley guinea pigs were sensitised to ovalbumin using two interperitoneal injections of ovalbumin (20 μg) in Al(OH)3 gel (1.65 mg) on days 1 and 11. On day 25 compound 2 was administered by oral gavage (30 mg/kg/day) for 7 days. On day 31, approximately 2 h after the last administration of compound 2, each guinea pig was anaesthetised with urethane (1750 mg/kg, i.p.) and artificially ventilated via a tracheal cannula connected to a Fleisch pneumotachograph (size 00) and a differential pressure transducer (±2 cm H2O; PT5, Grass Astro-Med Inc., USA). Total pulmonary resistance (RL) was calculated online by integration of flow, tidal volume and transpulmonary pressure. Pulmonary resistance was recorded for approximately 5 min before ovalbumin (300 μg/ml, i.v) challenge and for approximately 15 min following ovalbumin challenge and was recorded in real time using a computer data acquisition system (Po-ne-Mah, USA).

[4] = tested on: ovalbumin-sensitised mice; assay: Ovalbumin-sensitised mice, a chronic model of asthma in vivo (Assay 8); details: for methacholine-induced increase in penH (enhanced pause) / Increase in penH: day 54; for methacholine-induced increase in penH (enhanced pause): methacholine challenge 50 mg/kg; for methacholine-induced increase in penH (enhanced pause) / eosinophil infiltration into the lung / IL-13 concentrations in the BAL / amount of lung remodelling (histopathology grading): oral gavage 20 days: compound 2 3, compound 32 30, budesonide 1, montelukast 10 mg/kg/day; for eosinophil infiltration into the lung: day 55, BAL cytospins; for Eosinophil infiltration / IL-4 concentration / IL-13 concentration / Histopathology score / Increase in penH: mean ± s.e.mean, oral gavage 20 days: 2 3 mg/kg/day, 32 30 mg/kg/day, budesonide 1 mg/kg/day, montelukast 10 mg/kg/day; for Eosinophil infiltration / IL-4 concentration / IL-13 concentration: BAL fluid day 55; for Eosinophil infiltration: sensitised 192.1 ± 33.2; for IL-4 concentration: sensitised 231.2 ± 62.4; for IL-13 concentration: sensitised 241.9 ± 89.3; for Histopathology score: lung remodelling, sensitised 541.6 ± 36.1; for Increase in penH: methacholine challenge, sensitised 193.0 ± 61.7
Protocol: Mice (BALB/c from Harlan-Olac) were sensitised to ovalbumin using two interperitoneal injections of ovalbumin (10 μg) and alum (200 μl) on day 1 and 14 followed by a 20 min, daily exposure to a ovalbumin aerosol (5%) on days 19-23 and then a thrice weekly 20 min, exposure to a ovalbumin aerosol (5%) on days 24-55. […] On day 54, mice were placed in BUXCO four chamber whole body plethysmographs and breathing-associated pressure changes were recorded which were then used to calculate enhanced pause (penH), a measurement of airways resistance, in response to a methacholine challenge.
On day 55 the mice were killed and brochoalveolar lavage (BAL) fluid was collected and cytospins prepared to measure eosinophil infiltration. In addition, concentrations of interleukin-4 (IL-4) and interleukin-13 (IL-13) were measured in the BAL fluid. Furthermore, lung samples were taken, examined by a histopathologist and scored using a grading system to describe the degree of lung remodelling.

T1 sequence (O35433 whole entry): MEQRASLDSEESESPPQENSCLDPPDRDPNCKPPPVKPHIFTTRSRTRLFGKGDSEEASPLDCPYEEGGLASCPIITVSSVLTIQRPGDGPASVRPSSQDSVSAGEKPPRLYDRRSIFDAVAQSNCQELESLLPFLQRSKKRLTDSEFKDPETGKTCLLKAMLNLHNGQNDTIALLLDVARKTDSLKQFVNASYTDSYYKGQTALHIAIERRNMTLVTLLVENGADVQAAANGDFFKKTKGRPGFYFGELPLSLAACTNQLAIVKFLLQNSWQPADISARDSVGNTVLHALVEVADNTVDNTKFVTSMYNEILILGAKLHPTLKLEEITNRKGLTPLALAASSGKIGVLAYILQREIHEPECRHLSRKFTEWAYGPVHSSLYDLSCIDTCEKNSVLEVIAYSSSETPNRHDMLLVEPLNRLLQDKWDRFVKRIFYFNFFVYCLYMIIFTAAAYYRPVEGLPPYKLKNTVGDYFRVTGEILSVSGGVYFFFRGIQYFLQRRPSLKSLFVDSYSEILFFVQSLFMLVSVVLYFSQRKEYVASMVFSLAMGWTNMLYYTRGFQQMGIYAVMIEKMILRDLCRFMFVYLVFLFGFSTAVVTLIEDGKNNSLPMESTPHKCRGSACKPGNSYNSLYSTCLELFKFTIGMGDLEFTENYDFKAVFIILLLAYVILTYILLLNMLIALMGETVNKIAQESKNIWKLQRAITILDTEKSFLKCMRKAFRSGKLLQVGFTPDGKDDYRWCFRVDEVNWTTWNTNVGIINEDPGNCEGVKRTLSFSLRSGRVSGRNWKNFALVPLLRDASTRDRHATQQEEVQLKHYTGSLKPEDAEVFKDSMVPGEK

Compound | Emax (TRPV1 receptor [1]) [%] | inhibition at 3 µM (TRPV1 receptor [2]) [%] | inhibition at 30 µM (TRPV1 receptor [2]) [%] | Emax at 3 µM (TRPV1 receptor [2]) [%] | Emax at 30 µM (TRPV1 receptor [2]) [%] | increase in pulmonary resistance following ovalbumin exposure ([3]; ovalbumin 300 μg/kg i.v. challenge, vehicle control group 228±57%) [%] | increase in pulmonary resistance compared with vehicle control ([3]; ovalbumin i.v. challenge) | methacholine-induced increase in penH (enhanced pause) [4] | eosinophil infiltration into the lung [4] | IL-13 concentrations in the BAL ([4]; day 55) | amount of lung remodelling (histopathology grading) ([4]; day 55) | Eosinophil infiltration [4] | IL-4 concentration [4] | IL-13 concentration [4] | Histopathology score ([4]; day 55) | Increase in penH [4] | IL-4 concentration in the BAL ([4]; day 55, oral gavage 20 days: compound 32 30, budesonide 1, montelukast 10 mg/kg/day)
COc1cc(CCC(=O)CC(=O)c2ccccc2)ccc1O [Compound 69, 5-(4-Hydroxy-3-methoxyphenyl)-1-phenyl-pentane-1,3-dione] | 38 | -49 | 23 | 49 | 36 |  |  |  |  |  |  |  |  |  |  |  | 
COc1cc(CCC(=O)C(C)C(=O)c2ccccc2)ccc1O (stereo not drawn) [Compound 11, 5-(4-Hydroxy-3-methoxy-phenyl)-2-methyl-1-phenyl-pentane-1,3-dione] | 68 | 8 | 12 | 24 | 111 |  |  |  |  |  |  |  |  |  |  |  | 
COc1cc(CCC(=O)CC(=O)C(C)(C)C)ccc1O [Compound 2, 6,6-Dimethyl-1-(4-hydroxy-3-methoxyphenyl)-heptane-3,5-dione] | 96 | -46 | -8 | 20 | 117 | 132±15 | significantly lower than vehicle control | decreased | reduced | reduced | reduced | 83.0 ± 10.8% of control | 238.2 ± 57.1% of control | 183.0 ± 60.9% of control | 450.0 ± 33.4% of control | 107.4 ± 21.5% of control | 
COc1cc(CCC(=O)CC(=O)C2(C)CC2)ccc1O [Compound 6, 5-(4-Hydroxy-3-methoxyphenyl)-1-(1-methylcyclopropyl)-pentane-1,3-dione] | 24 | 15 | 28 | 52 | 49 |  |  |  |  |  |  |  |  |  |  |  | 
COc1cc(CCC(=O)C(C)(C)C(=O)c2ccccc2)ccc1O [Compound 32, 2,2-Dimethyl-5-(4-hydroxy-3-methoxy-phenyl)-1-phenyl-pentane-1,3-dione] |  | 47 | 40 | 22 | 21 |  |  | decreased | reduced | reduced | reduced | 106.6 ± 19.9% of control | 168.0 ± 50.8% of control | 148.7 ± 88.4% of control | 339.3 ± 45.0% of control | 153.5 ± 29.0% of control | reduced

Reference: patent US7589123B2, “Chemical compounds” (Phytopharm PLC, priority 2006, dated 2009)
